System: human IgG in mouse serum
Test: Immunoglobulin G (IgG) mRNA in vivo evaluation using lipid nanoparticle compositions
Parameters: species or system mice
Settings: LNP with the cationic lipid, 0.3 mg mRNA/kg, tail vein injection, μg IgG/mL serum 24 hours after administration
Experimental: A lipid of Formula (I), DSPC, cholesterol and PEG-lipid of Formula (II) are solubilized in ethanol at a molar ratio of 50:10:38.5:1.5 or 47.5:10:40.7:1.8. Lipid nanoparticles (LNP) are prepared at a total lipid to mRNA weight ratio of approximately 10:1 to 40:1. Briefly, the mRNA is diluted to 0.2 mg/mL in 10 to 50 mM citrate buffer, pH 4 to 6 or 10 to 25 mM acetate buffer, pH 4 to 6. Syringe pumps are used to mix the ethanolic lipid solution with the mRNA aqueous solution at a ratio of about 1:5 to 1:3 (vol/vol) with total flow rates above 15 mL/min. The ethanol is then removed, and the external buffer replaced with PBS by dialysis. Finally, the lipid nanoparticles are filtered through a 0.2 µm pore sterile filter.
Studies are performed in 6-8-week-old CD-1/ICR mice (Charles River or Inotiv) according to guidelines established by an institutional animal care committee (ACC) and the Canadian Council on Animal Care (CCAC). Varying doses of mRNA-lipid nanoparticle are systemically administered by tail vein injection and animals euthanized at a specific time point (e.g., 24 hours) post-administration. The whole blood is collected, and the serum subsequentially separated by centrifuging the tubes of the whole blood at 2000×g for 10 minutes at 4° C. and stored at −80° C. until use for analysis.
For immunoglobulin G (IgG) ELISA (Life Diagnostics Human IgG ELISA kit), the serum samples are diluted at 100 to 20,000 folds with 1× diluent solution. 100 μL of diluted serum is dispensed into anti-human IgG coated 96-well plate in duplicate alongside human IgG standards and incubated in a plate shaker at 150 rpm at 25° C. for 45 minutes. The wells are washed 5 times with 1× wash solution using a plate washer (400 μL/well). 100 μL of HRP conjugate is added into each well and incubated in a plate shaker at the same condition above. The wells are washed 5 times again with 1× wash solution using a plate washer (400 μL/well). 100 μL of TMB reagent is added into each well and incubated in a plate shaker at the same condition above. The reaction is stopped by adding 100 μL of Stop solution to each well. The absorbance is read at 450 nm (A450) with a microplate reader. The amount of human IgG in mouse serum is determined by plotting A450 values for the assay standard against human IgG concentration.
Representative compounds of the disclosure shown in Table 2 were formulated using the following molar ratio: 50% cationic lipid/10% distearoylphosphatidylcholine (DSPC)/38.5% Cholesterol/1.5% PEG lipid 2-[2-(ω-methoxy(polyethyleneglycohooo)ethoxy]-N,N-ditetradecylacetamide) or 47.5% cationic lipid/10% DSPC/40.7% Cholesterol/1.8% PEG lipid. Relative activity was determined by measuring the amount of human IgG […]. The activity was compared at a dose of 1.0 or 0.3 mg mRNA/kg and expressed as ng luciferase/g liver measured 4 hours after administration, as described in Example 1 or as μg IgG/mL serum measured 24 hours after administration, as described in Example 2. Compound numbers in Table 2 refer to the compound numbers of Table 1.

SMILES | Serum IgG (μg/mL) @ 0.3 mg/kg
CCCCCCCCC(CCCCCC)COC(=O)CCCCCN(C(=O)CCCCCCCN(C)CCCCCCCC(=O)N(CCCCCC(=O)OCC(CCCCCC)CCCCCCCC)C(C)C)C(C)C (stereo not drawn) [Compound I-28, Bis(2-Hexyldecyl) 6,6′-((8,8′-(Methylazanediyl)Bis(Octanoyl))Bis(Isopropylazanediyl))Dihexanoate] | 13.2 ± 4.3 µg/mL
CCCCCCCCC(CCCCCC)COC(=O)CCCCCN(CCCCCC)C(=O)CCCCCCCN(C)CCCCCCCC(=O)N(CCCCCC)CCCCCC(=O)OCC(CCCCCC)CCCCCCCC (stereo not drawn) [Compound I-25, Bis(2-Hexyldecyl) 6,6′-((8,8′-(Methylazanediyl)Bis(Octanoyl))Bis(Hexylazanediyl))Dihexanoate] | 55.3 ± 24.8 µg/mL
CCCCCCCCCCN(CCCCCC(=O)OCC(CCCCCC)CCCCCCCC)C(=O)CCCCCCCN(C)CCCCCCCC(=O)N(CCCCCCCCCC)CCCCCC(=O)OCC(CCCCCC)CCCCCCCC (stereo not drawn) [Compound I-40, Bis(2-Hexyldecyl) 6,6′-((8,8′-(Methylazanediyl)Bis(Octanoyl))Bis(Decylazanediyl))Dihexanoate] | 13.8 ± 6.0 µg/mL
CCCCCCCCC(CCCCCC)COC(=O)CCCCCN(CCCCCC)C(=O)CCCCCN(C)CCCCCCCC(=O)N(CCCCCC)CCCCCCOC(=O)C(CCCCCC)CCCCCCCC (stereo not drawn) [Compound I-46, 7,23,32-Trihexyl-16-Methyl-8,22,29-Trioxo-30-Oxa-7,16,23-Triazatetracontyl 2-Hexyldecanoate] | 34.4 ± 11.3 µg/mL
CCCCCCCCC(CCCCCC)COC(=O)CCN(CCCCCC)C(=O)CCCCCCCN(C)CCCCCCCC(=O)N(CCCCCC)CCC(=O)OCC(CCCCCC)CCCCCCCC (stereo not drawn) [Compound I-32, Bis(2-Hexyldecyl) 3,3′-((8,8′-(Methylazanediyl)Bis(Octanoyl))Bis(Hexylazanediyl))Dipropionate] | 70.8 ± 12.3 µg/mL
CCCCCCCCC(CCCCCC)COC(=O)CCCCCCCCCN(CCCCCC)C(=O)CCCCCN(C)CCCCCC(=O)N(CCCCCC)CCCCCCCCCC(=O)OCC(CCCCCC)CCCCCCCC (stereo not drawn) [Compound I-22, Bis(2-Hexyldecyl) 10,10′-((6,6′-(Methylazanediyl)Bis(Hexanoyl))Bis(Hexylazanediyl))Bis(Decanoate)] | 11.9 ± 5.9 µg/mL
CCCCCCCCC(CCCCCC)COC(=O)CCCCCN(CCCCCC)C(=O)CCCN(C)CCCC(=O)N(CCCCCC)CCCCCC(=O)OCC(CCCCCC)CCCCCCCC (stereo not drawn) [Compound I-52, Bis(2-Hexyldecyl) 6,6′-((4,4′-(Methylazanediyl)Bis(Butanoyl))Bis(Hexylazanediyl))Dihexanoate] | 13.0 ± 4.1 µg/mL
CCCCCCCCC(CCCCCC)COC(=O)CCCCCN(CCCCCCCC)C(=O)CCCCCCCN(C)CCCCCCCC(=O)N(CCCCCCCC)CCCCCC(=O)OCC(CCCCCC)CCCCCCCC (stereo not drawn) [Compound I-41, Bis(2-Hexyldecyl) 6,6′-((8,8′-(Methylazanediyl)Bis(Octanoyl))Bis(Octylazanediyl))Dihexanoate] | 19.2 ± 6.8 µg/mL
CCCCCCCCC(CCCCCC)COC(=O)CCCCCN(CCCCCC)C(=O)CCCCN(C)CCCCC(=O)N(CCCCCC)CCCCCC(=O)OCC(CCCCCC)CCCCCCCC (stereo not drawn) [Compound I-19, Bis(2-Hexyldecyl) 6,6′-((5,5′-(Methylazanediyl)Bis(Pentanoyl))Bis(Hexylazanediyl))Dihexanoate] | 12.3 ± 5.2 µg/mL
CCCCCCCCC(CCCCCC)COC(=O)CCCCCCCNC(=O)CCCCCCCCCN(C)CCCCCCCCCC(=O)NCCCCCCCC(=O)OCC(CCCCCC)CCCCCCCC (stereo not drawn) [Compound I-2, Bis(2-Hexyldecyl) 8,8′-((10,10′-(Methylazanediyl)Bis(Decanoyl))Bis(Azanediyl))Dioctanoate] | 70.7 ± 11.3 µg/mL
CCCCCCCCC(CCCCCC)C(=O)OCCCCCCN(CCCCCC)C(=O)CCCCCCCN(CCCCCCCC(=O)N(CCCCCC)CCCCCCOC(=O)C(CCCCCC)CCCCCCCC)CCN(C)C (stereo not drawn) [Compound I-34, ((8,8′-((2-(Dimethylamino)Ethyl)Azanediyl)Bis(Octanoyl))Bis(Hexylazanediyl))Bis(Hexane-6,1-Diyl) Bis(2-Hexyldecanoate)] | 5.0 ± 0.8 µg/mL
CCCCCCCCC(CCCCCC)COC(=O)CCCCCCCCN(CCCCCC)C(=O)CCCCCN(C)CCCCCC(=O)N(CCCCCC)CCCCCCCCC(=O)OCC(CCCCCC)CCCCCCCC (stereo not drawn) [Compound I-17, Bis(2-Hexyldecyl) 9,9′-((6,6′-(Methylazanediyl)Bis(Hexanoyl))Bis(Hexylazanediyl))Dinonanoate] | 16.0 ± 2.6 µg/mL
CCCCCCCCC(CCCCCC)COC(=O)CCCCCN(CCCCCC)C(=O)CCCCCN(CCCCCC(=O)N(CCCCCC)CCCCCC(=O)OCC(CCCCCC)CCCCCCCC)CCCOC (stereo not drawn) [Compound I-37, Bis(2-Hexyldecyl) 6,6′-((6,6′-((3-Methoxypropyl)Azanediyl)Bis(Hexanoyl))Bis(Hexylazanediyl))Dihexanoate] | 63.0 ± 22.9 µg/mL
CCCCCCCCC(CCCCCC)COC(=O)CCCCCN(CCCCCC)C(=O)CCCCCCN(C)CCCCCCC(=O)N(CCCCCC)CCCCCC(=O)OCC(CCCCCC)CCCCCCCC (stereo not drawn) [Compound I-24, Bis(2-Hexyldecyl) 6,6′-((7,7′-(Methylazanediyl)Bis(Heptanoyl))Bis(Hexylazanediyl))Dihexanoate] | 31.9 ± 6.4 µg/mL
CCCCCCCCCCCCCCCCN(CCCN(C)CCCCCCCC(=O)N(CCCCCCCCCC)CCCCCC(=O)OCC(CCCC)CCCCCC)C(=O)CCCCC(=O)OCC(CCCCCC)CCCCCCCC (stereo not drawn) [Compound I-38, 2-Hexyldecyl 6-((3-((8-((6-((2-Butyloctyl)Oxy)-6-Oxohexyl)(Decyl)Amino)-8-Oxooctyl)(Methyl)Amino)Propyl)(Hexadecyl)Amino)-6-Oxohexanoate] | 21.9 ± 8.8 µg/mL
CCCCCCCCC(CCCCCC)COC(=O)CCCCCCCN(CCCCCC)C(=O)CCCCN(C)CCCCC(=O)N(CCCCCC)CCCCCCCC(=O)OCC(CCCCCC)CCCCCCCC (stereo not drawn) [Compound I-18, Bis(2-Hexyldecyl) 8,8′-((5,5′-(Methylazanediyl)Bis(Pentanoyl))Bis(Hexylazanediyl))Dioctanoate] | 8.9 ± 4.9 µg/mL
CCCCCCCCC(CCCCCC)COC(=O)CCCCCN(CCCCCCCCN(C)CCCCCCCCN(CCCCCC(=O)OCC(CCCCCC)CCCCCCCC)C(=O)CCCCC)C(=O)CCCCC (stereo not drawn) [Compound I-43, Bis(2-Hexyldecyl) 6,6′-(((Methylazanediyl)Bis(Octane-8,1-Diyl))Bis(Hexanoylazanediyl))Dihexanoate] | 49.9 ± 14.8 µg/mL
CCCCCCCCC(CCCCCC)COC(=O)CCCCCCCN(CCCCCC)C(=O)CCCCCCN(C)CCCCCCC(=O)N(CCCCCC)CCCCCCCC(=O)OCC(CCCCCC)CCCCCCCC (stereo not drawn) [Compound I-16, Bis(2-Hexyldecyl) 8,8′-((7,7′-(Methylazanediyl)Bis(Heptanoyl))Bis(Hexylazanediyl))Dioctanoate] | 37.2 ± 9.7 µg/mL
CCCCCCCCC(CCCCCC)COC(=O)CCCCN(CCCCCC)C(=O)CCCCCCCN(C)CCCCCCCC(=O)N(CCCCCC)CCCCC(=O)OCC(CCCCCC)CCCCCCCC (stereo not drawn) [Compound I-15, Bis(2-Hexyldecyl) 5,5′-((8,8′-(Methylazanediyl)Bis(Octanoyl))Bis(Hexylazanediyl))Dipentanoate] | 48.2 ± 12.7 µg/mL
CCCCCCCCC(CCCCCC)COC(=O)CCCCCN(CCCCCC)C(=O)CCCCCCCN(CCCCCCCC(=O)N(CCCCCC)CCCCCC(=O)OCC(CCCCCC)CCCCCCCC)[C@H]1CC[C@@H](O)CC1 (stereo partly drawn) [Compound I-12, Rel-Bis(2-Hexyldecyl) 6,6′-((8,8′-(((1R,4R)-4-Hydroxycyclohexyl)Azanediyl)Bis(Octanoyl))Bis(Hexylazanediyl))Dihexanoate] | 29.6 ± 12.7 µg/mL

Same assay, conditions: LNP with the cationic lipid, 1.0 mg mRNA/kg, tail vein injection, μg IgG/mL serum 24 hours after administration

SMILES | Serum IgG (μg/mL) @ 1.0 mg/kg
CCCCCCCCC(CCCCCC)COC(=O)CCCCCN(CCCCCC)C(=O)CCCCCCCN(C)CCCCCCCC(=O)N(CCCCCC)CCCCCC(=O)OCC(CCCCCC)CCCCCCCC (stereo not drawn) [Compound I-25, Bis(2-Hexyldecyl) 6,6′-((8,8′-(Methylazanediyl)Bis(Octanoyl))Bis(Hexylazanediyl))Dihexanoate] | 192.4 ± 106.8 µg/mL
CCCCCCCCC(CCCCCC)COC(=O)CCCCCCCNC(=O)CCCCCCCCCN(C)CCCCCCCCCC(=O)NCCCCCCCC(=O)OCC(CCCCCC)CCCCCCCC (stereo not drawn) [Compound I-2, Bis(2-Hexyldecyl) 8,8′-((10,10′-(Methylazanediyl)Bis(Decanoyl))Bis(Azanediyl))Dioctanoate] | 369.6 ± 59.4 µg/mL
CCCCCCCCC(CCCCCC)COC(=O)CCCCCCCN(CCCCCC)C(=O)CCCCN(C)CCCCC(=O)N(CCCCCC)CCCCCCCC(=O)OCC(CCCCCC)CCCCCCCC (stereo not drawn) [Compound I-18, Bis(2-Hexyldecyl) 8,8′-((5,5′-(Methylazanediyl)Bis(Pentanoyl))Bis(Hexylazanediyl))Dioctanoate] | 32.4 ± 4.6 µg/mL
CCCCCCCCC(CCCCCC)COC(=O)CCCCN(CCCCCC)C(=O)CCCCCCCN(C)CCCCCCCC(=O)N(CCCCCC)CCCCC(=O)OCC(CCCCCC)CCCCCCCC (stereo not drawn) [Compound I-15, Bis(2-Hexyldecyl) 5,5′-((8,8′-(Methylazanediyl)Bis(Octanoyl))Bis(Hexylazanediyl))Dipentanoate] | 135.0 ± 37.2 µg/mL
